In experiment [1] the test system is B-16 melanoma. In words: Antitumor activity against B-16 melanoma (tumor growth). To be noted: 20 mg/kg × 6. The format is in vivo, BDF1 strain mice (male, 7 weeks old). As for the experimental part: (§1) (1) B-16 Melanoma tumor cells were subcutaneously transplanted at the armpit to BDF1 strain mice (male, 7 weeks old) in an amount of 1×10^6 cells per mouse. Subsequently, TF-133a was intraperitoneally administered to the mice in a dosage of 5 mg/kg or 10 mg/kg once a day on the first day and from the third day to the seventh day, for 6 days in total, after the transplantation of the tumor cells. In the same manner as above, 0.2 ml of a physiological salt solution was administered to the control group, and 20 mg/kg of 5-FU to the group for 5-FU administration.

In experiment [2] the test system is B-16 melanoma. Put plainly: Metastasis of B-16 melanoma tumor cells to the lungs. Type of experiment: in vivo, BDF1 strain mice (male, 7 weeks old). The following applies: 20 mg/kg × 6, 21st day. On the procedure: as §1
(2) The transplantation of B-16 melanoma tumor cells and the administration of TF-132a, TF-133a, 5-FU and a physiological salt solution were carried out in the same manner as in above (1). On the 21st day after the transplantation of the tumor cells, the mice were dissected, and the metastasis of the melanoma tumor cells to the lungs was observed.

The structures appear in SMILES notation.

By T/C is commonly meant the result in the treated group divided by that in the control group, in per cent.

In experiment [1], `O=c1[nH]cc(F)c(=O)[nH]1` [5-FU] yielded an Average tumor weight of 4.21 g and a T/C of 72%. Moreover, in experiment [2], the “Average number of metastasis” value is listed as 24.8 and the “Percentage of metastasis inhibition” value is given as 20%.

Source of the values: patent US4744985A, “Novel substances having carcinostatic and immunostimulating activity, process for preparing the same and carcinostatic agent containing the same” (Toyama Chemical Co., Ltd., priority 1979, dated 1988).
